Assay results: PubChem BioAssay (NCI)
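Test compounds were applied to cells in 96-well plates for 48 hours at 5 doses. TGI is the concentration that stops growth completely.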

Legend:
Assay in all cases: NCI anticancer screen, dose series, 48 h
K-562 leukemia = test system: K-562 leukemia
CCRF-CEM leukemia = test system: CCRF-CEM leukemia
NCI-H522 lung = test system: NCI-H522 lung
MDA-N = test system: MDA-N
TK-10 renal = test system: TK-10 renal
HOP-62 NSCLC = test system: HOP-62 NSCLC
LOX IMVI melanoma = test system: LOX IMVI melanoma
786-0 renal = test system: 786-0 renal
IGROV1 ovarian = test system: IGROV1 ovarian
KM12 colon = test system: KM12 colon
HT29 colon = test system: HT29 colon
A549 NSCLC = test system: A549 NSCLC
MDA-MB-231 breast = test system: MDA-MB-231 breast
HCC-2998 colon = test system: HCC-2998 colon
UACC-257 melanoma = test system: UACC-257 melanoma
ACHN renal = test system: ACHN renal
A498 renal = test system: A498 renal
HL-60(TB) leukemia = test system: HL-60(TB) leukemia
MALME-3M melanoma = test system: MALME-3M melanoma

| SMILES | TGI (K-562 leukemia) [µM] | TGI (CCRF-CEM leukemia) [µM] | TGI (NCI-H522 lung) [µM] | TGI (MDA-N) [µM] | TGI (TK-10 renal) [µM] | TGI (HOP-62 NSCLC) [µM] | TGI (LOX IMVI melanoma) [µM] | TGI (786-0 renal) [µM] | TGI (IGROV1 ovarian) [µM] | TGI (KM12 colon) [µM] | TGI (HT29 colon) [µM] | TGI (A549 NSCLC) [µM] | TGI (MDA-MB-231 breast) [µM] | TGI (HCC-2998 colon) [µM] | TGI (UACC-257 melanoma) [µM] | TGI (ACHN renal) [µM] | TGI (A498 renal) [µM] | TGI (HL-60(TB) leukemia) [µM] | TGI (MALME-3M melanoma) [µM] |
| --- | --- | --- | --- | --- | --- | --- | --- | --- | --- | --- | --- | --- | --- | --- | --- | --- | --- | --- | --- |
| Nc1ccc(C(=O)Nn2c(-c3ccccc3)nc3ccccc3c2=O)cc1 | > 100 | > 100 | > 100 | > 100 | > 100 | > 100 | > 100 | > 100 | > 100 | > 100 | > 100 | > 100 | > 100 | > 100 | > 100 | > 100 | > 100 | > 100 | > 100 |
| CCOC(=O)C(Cl)(NC(=O)c1ccc(F)cc1)C(F)(F)F (centres undefined) | > 100 | > 100 | > 100 | > 100 | > 100 | > 100 | > 100 | > 100 | > 100 | > 100 | > 100 | > 100 | > 100 | > 100 | > 100 | > 100 | > 100 | > 100 | > 100 |
| CC(=O)c1cccc2c1CC1(C2)Cc2ccc3c(c2C1=O)CCC3 (centres undefined) | > 100 | > 100 | > 100 | > 100 | 77.6 | > 100 | > 100 | > 100 | > 100 | > 100 | > 100 | > 100 | > 100 | 67.4 | 43.9 | > 100 | > 100 | 21.3 | > 100 |
| CC(=O)OCC1OC(N2C(c3ccccc3)=CC(c3ccccc3)C(C#N)=C2S)C(OC(C)=O)C(OC(C)=O)C1OC(C)=O (centres undefined) | > 100 | > 100 | 28.6 | 15.1 | 50.1 | 17.9 | > 42.5 | 9.85 | > 52.9 | > 44.9 | > 82.5 | > 46.4 | > 40.8 | > 100 | 16.5 | 27 | 44.2 | > 100 | 28.3 |
| CCOC(=O)Cn1sc2ncc([N+](=O)[O-])cc2c1=O | 12.3 | 5.41 | 39.5 | 24.9 | 32.8 | 30 | 26.4 | 30.6 | 25.9 | 34.3 | 29.8 | 39.7 | 29.3 | 32.2 | 31.6 | 29.5 | > 100 | > 100 | 33.9 |
| Cc1ccc(S(=O)(=O)OC2C3OC(C)(C)OC3OC2C(c2cc(O)c3c(c2O)C(=O)c2ccccc2C3=O)c2cc(O)c3c(c2O)C(=O)c2ccccc2C3=O)cc1 (centres undefined) | > 10 | > 10 | > 10 | > 10 | > 10 | > 10 | > 10 | > 10 | > 10 | > 10 | > 10 | > 10 | > 10 | > 10 | > 10 | > 10 | > 10 | > 10 | > 10 |
